Assay results taken from article PMC11714206, “Massively Parallel Screening of Toll/Interleukin‐1 Receptor (TIR)‐Derived Peptides Reveals Multiple Toll‐Like Receptors (TLRs)‐Targeting Immunomodulatory Peptides” (Advanced Science, 2024).
Several values for one entry are separate records, joined by “and”; a condition that tells them apart may be missing. Equal entries are not always repeated.

Target: T1, MyD88^TIR (Homo sapiens, UniProt Q99836)
T1 construct: MyD88 (residues 148–296); 6xHis; made in house; host or cells: E. coli BL21 (DE3)
Experiment: T‐Surf phage library (P8 and P3) selection against MyD88^TIR, four rounds, NGS read counts
Assay type: binding
Settings: for P8_MyD88 Rank (after) / P8_MyD88 Rank (before): P8 library; for P3_MyD88 Rank (after) / P3_MyD88 Rank (before): P3 library; for Population: 4th round of selection against MyD88 TIR, share of NGS reads
In short: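 P8 and P3 T‐Surf libraries panned against plate-coated TIR domains (5 µg mL^−1), 1 h binding at RT, acid elution and TG1/helper-phage amplification per round. After four rounds, pools were PCR-barcoded and sequenced (NovaSeq, 100 bp paired-end, Phred ≥30); peptides ranked by read counts.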

[1] = P8_MyD88: rank by NGS read count after grouping
[2] = P8_MyD88: rank by NGS read count before grouping
[3] = selection against MyD88, rank by count after grouping
[4] = selection against MyD88, rank by count before grouping
[5] = 4R selection against MyD88, rank after grouping
[6] = 4R selection against MyD88, rank before grouping
[7] = P8_MyD88: rank by count after grouping
[8] = P8_MyD88: rank by count before grouping
[9] = P8_MyD88 pool: P8 T-Surf phage library
[10] = selection against MyD88, rank after grouping
[11] = selection against MyD88, rank before grouping
[12] = P3_MyD88: rank by count after grouping
[13] = P3_MyD88: rank by count before grouping
[14] = selection against MyD88 TIR, rank by count after grouping
[15] = selection against MyD88 TIR, rank by count before grouping
[16] = P3_MyD88 pool: P3 T-Surf phage library

T1 sequence (Q99836 148-296): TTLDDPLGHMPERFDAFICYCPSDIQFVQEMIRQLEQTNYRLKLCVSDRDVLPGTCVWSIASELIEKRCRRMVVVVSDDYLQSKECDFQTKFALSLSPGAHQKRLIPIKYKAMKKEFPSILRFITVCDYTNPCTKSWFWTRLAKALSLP

Sequence: DSLFWDRLLYSLQFTE
- Rank (after) [1]: 933
- Rank (before) [2]: 3097

Sequence: IDDHHLTFLVSLLLSL
- Rank (after) [1]: 975
- Rank (before) [2]: 3651

Sequence: STTYLQWGDNWFWDKL
- P8_MyD88 Rank (after) [3]: 740
- P8_MyD88 Rank (before) [4]: 3819

Sequence: QGDPSYRLTLHYRDVN
- P3_MyD88 Rank (after) [5]: 591
- P3_MyD88 Rank (before) [6]: 2866

Sequence: YTALTNSGFHTFRVNV
- P3_MyD88 Rank (after) [5]: 659
- P3_MyD88 Rank (before) [6]: 1668

Sequence: NYADSSWALDELLAIM
- Rank (after) [7]: 164
- Rank (before) [8]: 184
- Population [9]: 0.00732%

Sequence: WDFASNMEQFWDRLLYA
- P8_MyD88 Rank (after) [3]: 711
- P8_MyD88 Rank (before) [4]: 1610

Sequence: DPQDLECVYERLVSLF
- Rank (after) [1]: 1006
- Rank (before) [2]: 2846

Sequence: SIWWILNELQEILNYQ
- P8_MyD88 Rank (after) [10]: 542
- P8_MyD88 Rank (before) [11]: 3800

Sequence: KWFWDKLKYALPHRYEP
- Rank (after) [12]: 128
- Rank (before) [13]: 790

Sequence: WDFASNMEQFWDRLIRMIE
- P8_MyD88 Rank (after) [10]: 529
- P8_MyD88 Rank (before) [11]: 1611

Sequence: WALNELQKILNAKETI
- Rank (after) [1]: 900
- Rank (before) [2]: 1553

Sequence: SSRRERLWRLLELSKK
- Rank (after) [12]: 424
- Rank (before) [13]: 3274

Sequence: DRQDLVWPYERLVSLL
- P8_MyD88 Rank (after) [3]: 698
- P8_MyD88 Rank (before) [4]: 2599

Sequence: YPQDLEWLYERLVSPV
- Rank (after) [1]: 945
- Rank (before) [2]: 2099

Sequence: LKWGDPYLCSKLRYAM
- P3_MyD88 Rank (after) [3]: 726
- P3_MyD88 Rank (before) [4]: 2442

Sequence: WDFSGNIEQFWDRLYY
- P8_MyD88 Rank (after) [3]: 758
- P8_MyD88 Rank (before) [4]: 1570

Sequence: SENYATSPWALKERLP
- Rank (after) [12]: 133
- Rank (before) [13]: 734

Sequence: FRGEDIADNFLSHLVVAL
- P8_MyD88 Rank (after) [14]: 234
- P8_MyD88 Rank (before) [15]: 371

Sequence: WALGELLQILQARERC
- Rank (after) [1]: 943
- Rank (before) [2]: 1408

Sequence: DHHLDLPRGKSFKPEILG
- Rank (after) [12]: 451
- Rank (before) [13]: 1996

Sequence: YAFTGHLHRYLVPRGL
- P3_MyD88 Rank (after) [14]: 248
- P3_MyD88 Rank (before) [15]: 1503

Sequence: YTALTYSGFHTFRDNV
- P3_MyD88 Rank (after) [14]: 276
- P3_MyD88 Rank (before) [15]: 1642

Sequence: YYLDPSHLRKHSGEIG
- P3_MyD88 Rank (after) [10]: 558
- P3_MyD88 Rank (before) [11]: 1464

Sequence: LVAHEISKKLKNFPTI
- P3_MyD88 Rank (after) [10]: 518
- P3_MyD88 Rank (before) [11]: 2289

Sequence: PQELEWFYERPVSLML
- Rank (after) [7]: 458
- Rank (before) [8]: 3506

Sequence: WKEALTYVSLLVGFPF
- P8_MyD88 Rank (after) [14]: 224
- P8_MyD88 Rank (before) [15]: 380

Sequence: LEWGEPIVLEKQRSVT
- P3_MyD88 Rank (after) [10]: 563
- P3_MyD88 Rank (before) [11]: 2328

Sequence: RSFRKGLWRLLELSNK
- Rank (after) [12]: 431
- Rank (before) [13]: 2695

Sequence: YTALTNICFHTFRDND
- Rank (after) [12]: 178
- Rank (before) [13]: 1654

Sequence: DPQDLDWFYERLLSR
- P8_MyD88 Rank (after) [14]: 236
- P8_MyD88 Rank (before) [15]: 467

Sequence: WRTALTKVGNMLGWIS
- Rank (after) [7]: 430
- Rank (before) [8]: 897

Sequence: LKAESCRQALEKSGKR
- P3_MyD88 Rank (after) [5]: 631
- P3_MyD88 Rank (before) [6]: 2533

Sequence: YASSSWALDELWNIF
- Rank (after) [7]: 167
- Rank (before) [8]: 193
- Population [9]: 0.00617%

Sequence: DWVWDYLLLSVFQTIFARRTE
- Rank (after) [7]: 425
- Rank (before) [8]: 1033

Sequence: EWSREQLRPALKESLP
- P3_MyD88 Rank (after) [14]: 239
- P3_MyD88 Rank (before) [15]: 2184

Sequence: WALDLEWFYERLFSQM
- P8_MyD88 Rank (after) [5]: 587
- P8_MyD88 Rank (before) [6]: 1517

Sequence: WALDELRKNLYAIETM
- P8_MyD88 Rank (after) [3]: 701
- P8_MyD88 Rank (before) [4]: 1502

Sequence: DWVCDYLLPDREGPAG
- Rank (after) [1]: 984
- Rank (before) [2]: 2474

Sequence: LKCCYPYFWSKLRYAM
- P3_MyD88 Rank (after) [5]: 612
- P3_MyD88 Rank (before) [6]: 2460

Sequence: EAFAVHENISKKTLK
- P3_MyD88 Rank (after) [5]: 611
- P3_MyD88 Rank (before) [6]: 2194

Sequence: DPQDLDWVYERLVSLI
- P8_MyD88 Rank (after) [14]: 271
- P8_MyD88 Rank (before) [15]: 2825

Sequence: VQCGDPWCWEKLAYAM
- P8_MyD88 Rank (after) [5]: 596
- P8_MyD88 Rank (before) [6]: 2212

Sequence: EWIREQLRPALKEHLP
- Population [16]: 0.00437%

Sequence: DPQDLDWFYKRLVSLL
- Rank (after) [7]: 121
- Rank (before) [8]: 724

Sequence: DYASYDDNDYYWVTHVLLRHL
- Rank (after) [7]: 439
- Rank (before) [8]: 1058

Sequence: LVAHEISKKLKIFATM
- P3_MyD88 Rank (after) [3]: 709
- P3_MyD88 Rank (before) [4]: 2288

Sequence: SSFREGLWRLLELSKK
- Population [16]: 0.00466% and 0.00437% and 0.00408% and 0.00378% and 0.00349% and 0.0032% and 0.00291%

Sequence: DPQDLDWFYERLFTQM
- P8_MyD88 Rank (after) [14]: 267
- P8_MyD88 Rank (before) [15]: 2763

Sequence: NERVHVWSSKAKSLVG
- Rank (after) [12]: 443
- Rank (before) [13]: 3453

Sequence: SELRVVDKETDKIQTPLKNA
- Rank (after) [12]: 412
- Rank (before) [13]: 3051

Sequence: SENYATSPWALDELVRIVEA
- P3_MyD88 Rank (after) [14]: 258
- P3_MyD88 Rank (before) [15]: 1170

Sequence: WDCASNMEQFWDLPYY
- Rank (after) [1]: 920
- Rank (before) [2]: 1639

Sequence: YNLAQYLHVSLMARGI
- P8_MyD88 Rank (after) [5]: 664
- P8_MyD88 Rank (before) [6]: 2134

Sequence: WGQAVTEDLWGWLFNP
- Rank (after) [7]: 176
- Rank (before) [8]: 201

Sequence: DPQDLEWFYERLVSLL
- Population [9]: 0.0224%

Sequence: ASSSFALDQLSYFLSL
- Rank (after) [7]: 189
- Rank (before) [8]: 243

Sequence: PQELECIYKRLVSLIL
- Rank (after) [1]: 1011
- Rank (before) [2]: 3504

Sequence: DIEYIHLFWDRLLYSL
- P8_MyD88 Rank (after) [10]: 526
- P8_MyD88 Rank (before) [11]: 3060

Sequence: YTALTNSGFHTFRDHE
- P3_MyD88 Rank (after) [14]: 227
- P3_MyD88 Rank (before) [15]: 1676

Sequence: DPQGLVWLYERLFSQI
- Rank (after) [1]: 918
- Rank (before) [2]: 2663

Sequence: YYLDTSHHRKQSGEFG
- P3_MyD88 Rank (after) [14]: 246
- P3_MyD88 Rank (before) [15]: 1438

Sequence: PNLRTKVLNYLMRTKT
- P8_MyD88 Rank (after) [3]: 705
- P8_MyD88 Rank (before) [4]: 3508
